# Laboratory results published in PubChem BioAssay AID256 (DTP/NCI, 2004).
# Toxic doses and inconclusive results are not listed.
# System: CD2F1 mice, L1210 leukemia ip, survival T/C
# Test: NCI In Vivo Anticancer Drug Screen. Data for tumor model L1210 Leukemia (intraperitoneal) in CD2F1 (CDF1) mice
# Details: higher = longer survival
# Method in brief: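 In this screen, transplantable tumors were grown in mice given either the compound or its vehicle. Results were expressed as the treated measurement relative to the control measurement.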
# [1] = endpoint: mean survival time, dose: 100.0 mg/kg/injection, schedule: Q04DX002 (ip), vehicle: saline with Tween-80
# [2] = endpoint: mean survival time, dose: 200.0 mg/kg/injection, schedule: Q04DX002 (ip), vehicle: saline with Tween-80
# [3] = endpoint: mean survival time, dose: 400.0 mg/kg/injection, schedule: Q04DX002 (ip), vehicle: saline with Tween-80
# [4] = endpoint: mean survival time, dose: 25.0 mg/kg/injection, schedule: Q04DX003 (ip), vehicle: saline with Tween-80
# [5] = endpoint: mean survival time, dose: 50.0 mg/kg/injection, schedule: Q01DX009 (ip), vehicle: saline with Tween-80
# [6] = endpoint: mean survival time, dose: 50.0 mg/kg/injection, schedule: Q04DX003 (ip), vehicle: saline with Tween-80
# [7] = endpoint: mean survival time, dose: 100.0 mg/kg/injection, schedule: Q01DX009 (ip), vehicle: saline with Tween-80
# [8] = endpoint: mean survival time, dose: 200.0 mg/kg/injection, schedule: Q01DX009 (ip), vehicle: saline with Tween-80
# [9] = endpoint: mean survival time, dose: 100.0 mg/kg/injection, schedule: Q04DX003 (ip), vehicle: saline with Tween-80
# [10] = endpoint: mean survival time, dose: 200.0 mg/kg/injection, schedule: Q04DX003 (ip), vehicle: saline with Tween-80
# [11] = endpoint: mean survival time, dose: 400.0 mg/kg/injection, schedule: Q04DX003 (ip), vehicle: saline with Tween-80
structure (smiles),measurement,setting,value
CN(C)C(=S)Oc1ccc2ccc3ccccc3c2c1,T/C,[1],96 % of control
same,T/C,[2],89 % of control
same,T/C,[3],104 % of control
CCOC(=O)c1c[nH]c2ccc3c(nc(C)n3C)c2c1=O,T/C,"endpoint: median survival time, dose: 25.0 mg/kg/injection, schedule: Q01DX005 (ip), vehicle: Klucel (hydroxypropylcellulose) (HPC)",98 % of control
same,T/C,"endpoint: median survival time, dose: 50.0 mg/kg/injection, schedule: Q01DX005 (ip), vehicle: Klucel (hydroxypropylcellulose) (HPC)",100 % of control
same,T/C,"endpoint: median survival time, dose: 100.0 mg/kg/injection, schedule: Q01DX005 (ip), vehicle: Klucel (hydroxypropylcellulose) (HPC)",108 % of control
same,T/C,"endpoint: median survival time, dose: 200.0 mg/kg/injection, schedule: Q01DX005 (ip), vehicle: Klucel (hydroxypropylcellulose) (HPC)",112 % of control
N#Cc1ccc([N+](=O)[O-])o1,T/C,"endpoint: mean survival time, dose: 12.5 mg/kg/injection, schedule: Q01DX009 (ip), vehicle: saline with Tween-80",104 % of control
same,T/C,"endpoint: mean survival time, dose: 25.0 mg/kg/injection, schedule: Q01DX009 (ip), vehicle: saline with Tween-80",101 % of control
same,T/C,[4],102 % of control
same,T/C,[5],92 % of control
same,T/C,[6],96 % of control
CCOC(=O)C1=C(NC(=O)Nc2cccc(C(F)(F)F)c2)SC2CCCCC12 (stereo unspecified),T/C,[5],94 % of control
same,T/C,[7],91 % of control
same,T/C,[8],87 % of control
O=C(O)c1ccccc1CCl,T/C,[9],103 % of control
same,T/C,[10],108 % of control
same,T/C,[11],108 % of control
C=C(Br)CNC(=O)NCC,T/C,[4],94 % of control
same,T/C,[6],105 % of control
same,T/C,[9],100 % of control
S=c1nc(-c2ccccc2)c(-c2ccccc2)n[nH]1,T/C,"endpoint: mean survival time, dose: 75.0 mg/kg/injection, schedule: Q01DX009 (ip), vehicle: saline",93 % of control
same,T/C,"endpoint: mean survival time, dose: 150.0 mg/kg/injection, schedule: Q01DX009 (ip), vehicle: saline",98 % of control
CN(/N=C/c1ccccc1)C(=N)N,T/C,"endpoint: mean survival time, dose: 15.62 mg/kg/injection, schedule: Q04DX003 (ip), vehicle: saline",101 % of control
same,T/C,"endpoint: mean survival time, dose: 31.25 mg/kg/injection, schedule: Q04DX003 (ip), vehicle: saline",107 % of control
same,T/C,"endpoint: mean survival time, dose: 62.5 mg/kg/injection, schedule: Q04DX003 (ip), vehicle: saline",103 % of control
C=C1CC(O)C2C(=C)C(=O)OC2C2C(C)C(=O)CC12 (stereo unspecified),T/C,"endpoint: mean survival time, dose: 6.25 mg/kg/injection, schedule: Q01DX009 (ip), vehicle: Klucel (hydroxypropylcellulose) (HPC)",95 % of control
same,T/C,"endpoint: mean survival time, dose: 12.5 mg/kg/injection, schedule: Q01DX009 (ip), vehicle: Klucel (hydroxypropylcellulose) (HPC)",100 % of control
same,T/C,"endpoint: mean survival time, dose: 25.0 mg/kg/injection, schedule: Q01DX009 (ip), vehicle: Klucel (hydroxypropylcellulose) (HPC)",105 % of control
CC(C)(C)OC(=O)NNC(=O)c1ccc([N+](=O)[O-])cc1,T/C,"endpoint: mean survival time, dose: 6.25 mg/kg/injection, schedule: Q01DX009 (ip), vehicle: alcohol",172 % of control
same,T/C,"endpoint: mean survival time, dose: 12.5 mg/kg/injection, schedule: Q01DX009 (ip), vehicle: alcohol",100 % of control
same,T/C,"endpoint: mean survival time, dose: 25.0 mg/kg/injection, schedule: Q01DX009 (ip), vehicle: alcohol",97 % of control
CCCCC(=O)OCC[N+](C)(C)C,T/C,[1],100 % of control
same,T/C,[2],95 % of control
same,T/C,[3],91 % of control
CC1(C2CCN(Cc3ccccc3)CC2)OCCO1,T/C,"endpoint: mean survival time, dose: 75.0 mg/kg/injection, schedule: Q01DX001 (ip), vehicle: saline",101 % of control
same,T/C,"endpoint: mean survival time, dose: 150.0 mg/kg/injection, schedule: Q01DX001 (ip), vehicle: saline",97 % of control
COc1ncnc2c1cnn2C1OC(CO)C(O)C1O (stereo unspecified),T/C,"endpoint: mean survival time, dose: 12.5 mg/kg/injection, schedule: Q01DX005 (ip), vehicle: water",94 % of control
same,T/C,"endpoint: mean survival time, dose: 25.0 mg/kg/injection, schedule: Q01DX005 (ip), vehicle: water",96 % of control
same,T/C,"endpoint: mean survival time, dose: 50.0 mg/kg/injection, schedule: Q01DX005 (ip), vehicle: water",96 % of control
same,T/C,"endpoint: mean survival time, dose: 100.0 mg/kg/injection, schedule: Q01DX005 (ip), vehicle: water",104 % of control
same,T/C,"endpoint: mean survival time, dose: 200.0 mg/kg/injection, schedule: Q01DX005 (ip), vehicle: water",107 % of control
Cc1ccccc1N1C(=O)CSC1=S,T/C,[7],98 % of control
same,T/C,[8],106 % of control
O=C(Nc1ccc(Cl)c(Cl)c1)C(Cl)(Cl)Cl,T/C,"endpoint: mean survival time, dose: 100.0 mg/kg/injection, schedule: Q01DX009 (ip), vehicle: saline + alcohol",91 % of control
same,T/C,"endpoint: mean survival time, dose: 200.0 mg/kg/injection, schedule: Q01DX009 (ip), vehicle: saline + alcohol",89 % of control
same,T/C,"endpoint: mean survival time, dose: 400.0 mg/kg/injection, schedule: Q01DX009 (ip), vehicle: saline + alcohol",91 % of control
Cc1ccc(NC(=O)c2ccccc2C(=O)O)c(C)c1,T/C,[7],109 % of control
same,T/C,[9],95 % of control
same,T/C,[8],96 % of control
same,T/C,[10],109 % of control
same,T/C,"endpoint: mean survival time, dose: 400.0 mg/kg/injection, schedule: Q01DX009 (ip), vehicle: saline with Tween-80",115 % of control
same,T/C,[11],103 % of control
CCCCCCCC(=O)Nc1ccccc1F,T/C,"endpoint: mean survival time, dose: 100.0 mg/kg/injection, schedule: Q04DX003 (ip), vehicle: saline",103 % of control
same,T/C,"endpoint: mean survival time, dose: 200.0 mg/kg/injection, schedule: Q04DX003 (ip), vehicle: saline",103 % of control
same,T/C,"endpoint: mean survival time, dose: 400.0 mg/kg/injection, schedule: Q04DX003 (ip), vehicle: saline",95 % of control
